Paper PMC4769034 (Journal of medicinal chemistry, 2015)
In brackets after ≈: the same amount, converted by molar mass. Entries after “also recorded” stand apart in the source; their conditions may differ.

Molecular target: T1, EPAC2 (Mus musculus, UniProt Q9EQZ6)
T1 sequence (Q9EQZ6 1-993 isoform Q9EQZ6-3): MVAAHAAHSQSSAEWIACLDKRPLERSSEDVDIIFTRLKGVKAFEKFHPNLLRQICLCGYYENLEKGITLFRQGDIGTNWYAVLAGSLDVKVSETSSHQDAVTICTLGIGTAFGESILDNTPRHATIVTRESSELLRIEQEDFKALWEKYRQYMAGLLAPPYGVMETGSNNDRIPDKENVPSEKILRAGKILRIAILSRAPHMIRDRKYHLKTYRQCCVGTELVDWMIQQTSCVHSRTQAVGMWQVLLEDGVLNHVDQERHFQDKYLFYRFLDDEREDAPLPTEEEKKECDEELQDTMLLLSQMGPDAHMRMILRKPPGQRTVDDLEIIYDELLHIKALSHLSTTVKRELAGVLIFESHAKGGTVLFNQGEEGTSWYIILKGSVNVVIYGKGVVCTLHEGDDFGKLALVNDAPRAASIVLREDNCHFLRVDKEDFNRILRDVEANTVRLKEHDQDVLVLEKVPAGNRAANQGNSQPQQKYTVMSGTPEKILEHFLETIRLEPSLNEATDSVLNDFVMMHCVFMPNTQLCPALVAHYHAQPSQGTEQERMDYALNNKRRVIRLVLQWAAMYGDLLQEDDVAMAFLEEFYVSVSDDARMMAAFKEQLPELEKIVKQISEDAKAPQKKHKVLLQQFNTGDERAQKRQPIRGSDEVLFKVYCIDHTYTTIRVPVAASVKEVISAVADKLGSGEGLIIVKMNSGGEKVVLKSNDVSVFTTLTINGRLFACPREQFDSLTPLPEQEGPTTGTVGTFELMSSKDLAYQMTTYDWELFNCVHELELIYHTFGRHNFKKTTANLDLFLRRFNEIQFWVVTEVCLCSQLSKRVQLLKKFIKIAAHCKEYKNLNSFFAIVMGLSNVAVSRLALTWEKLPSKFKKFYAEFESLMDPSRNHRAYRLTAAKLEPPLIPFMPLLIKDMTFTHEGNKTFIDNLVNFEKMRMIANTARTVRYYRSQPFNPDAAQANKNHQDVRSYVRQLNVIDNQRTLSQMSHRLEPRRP
Assay: 8-NBD-cAMP competition assay
Conditions: 8-NBD-cAMP competition

| Compound | EPAC2 binding activity in words |
| --- | --- |
| CC(C)(C)c1cc(NC(=O)C(C#N)=NNc2cccc(Cl)c2)no1 [Compound 51, N-(5-tert-Butyl-isoxazol-3-yl)-2-[(3-chlorophenyl)-hydrazono]-2-cyanoacetamide] | completely inactive |
| CC(=O)c1cccc(N/N=C(\C#N)C(=O)c2cc(C(C)(C)C)on2)c1 [Compound 17, N′-(3-Acetylphenyl)-2-(5-tert-butylisoxazol-3-yl)-2-oxoacetohydrazonoyl Cyanide] | dramatic loss of activity |
| COc1cccc(N/N=C(\C#N)C(=O)c2cc(C(C)(C)C)on2)c1 [Compound 18, 2-(5-tert-Butylisoxazol-3-yl)-N′-(3-methoxyphenyl)-2-oxoacetohydrazonoyl Cyanide] | significant loss of activity |
| CC(C)(C)c1cc(C(=O)/C(C#N)=N/Nc2cccc(CO)c2)no1 [Compound 19, 2-(5-tert-Butylisoxazol-3-yl)-N′-(3-(hydroxymethyl)phenyl)-2-oxoacetohydrazonoyl Cyanide] | significant loss of activity |
| N#C/C(=N\Nc1cccc(Cl)c1)C(=O)c1cc(-c2ccccc2)on1 [Compound 41, N′-(3-Chlorophenyl)-2-oxo-2-(5-phenylisoxazol-3-yl)-acetohydrazonoyl Cyanide] | totally inactive |
| CC(C)(C)c1cc(NC(=O)Nc2cccc(Cl)c2)no1 [Compound 54, 1-(5-tert-Butylisoxazol-3-yl)-3-(3-chlorophenyl)urea] | entire loss of potency; also recorded: no significant activity |
| N#C/C(=N\Nc1cc(Cl)c(Cl)c(Cl)c1)C(=O)c1cc(-c2ccccc2)on1 [Compound 48, N′-(3,4,5-Trichlorophenyl)-2-oxo-2-(5-phenylisoxazol-3-yl)-acetohydrazonoyl Cyanide] | totally inactive |
| CC(C)(C)c1cc(C(=O)N/N=C/c2cccc(Cl)c2)no1 [Compound 56, (E)-5-(tert-Butyl)-N′-(3-chlorobenzylidene)isoxazole-3-carbohydrazide] | entire loss of potency; also recorded: no significant activity |
| Cc1cc(NC(=O)C(C#N)=NNc2cccc(Cl)c2)no1 [Compound 52, 2-[(3-Chlorophenyl)-hydrazono]-2-cyano-N-(5-methyl-isoxazol-3-yl)acetamide] | completely inactive |
| CC(C)(C)c1cc(-c2n[nH]c(N)c2/N=N/c2cccc(Cl)c2)no1 [Compound 57, 3-(5-tert-Butylisoxazol-3-yl)-4-((3-chlorophenyl)diazenyl)-1H-pyrazol-5-amine] | entire loss of potency; also recorded: no significant activity |
| CC(C)(C)c1cc(C(=O)Nc2cccc(Cl)c2)no1 [Compound 55, 5-tert-Butyl-N-(3-chlorophenyl)isoxazole-3-carboxamide] | entire loss of potency; also recorded: no significant activity |
| CC(C)(C)c1cc(NC(=O)c2cccc(Cl)c2)no1 [Compound 53, N-(5-(tert-Butyl)isoxazol-3-yl)-3-chlorobenzamide] | entire loss of potency; also recorded: no significant activity |

Same assay, conditions: vs compound 1

| Compound | fold loss of EPAC2 binding affinity / inhibitory activity in comparison with 1 | fold more potent than parent compound 1 |
| --- | --- | --- |
| CC(C)(C)c1cc(C(=O)/C(C#N)=N/Nc2ccccc2)no1 [Compound 8, 2-(5-tert-Butylisoxazol-3-yl)-N′-phenyl-2-oxoacetohydrazonoyl Cyanide] | ~7 fold |  |
| CC(C)(C)c1cc(C(=O)/C(C#N)=N/Nc2cc(Cl)cc(Cl)c2)no1 [Compound 22, 2-(5-tert-Butylisoxazol-3-yl)-N′-(3,5-dichlorophenyl)-2-oxoacetohydrazonoyl Cyanide] |  | about 5 fold |
| CC(C)(C)c1cc(C(=O)/C(C#N)=N/Nc2ccccc2Cl)no1 [Compound 9, 2-(5-tert-Butylisoxazol-3-yl)-N′-(2-chlorophenyl)-2-oxoacetohydrazonoyl Cyanide] | 3 fold |  |
| CC(C)(C)c1cc(C(=O)/C(C#N)=N/Nc2ccc(Cl)c(Cl)c2)no1 [Compound 23, 2-(5-tert-Butylisoxazol-3-yl)-N′-(3,4-dichlorophenyl)-2-oxoacetohydrazonoyl Cyanide] |  | ~3 fold |
| CC(C)(C)c1cc(C(=O)/C(C#N)=N/Nc2ccc(Cl)cc2)no1 [Compound 10, 2-(5-tert-Butylisoxazol-3-yl)-N′-(4-chlorophenyl)-2-oxoacetohydrazonoyl Cyanide] | 3 fold |  |

Same assay, conditions: vs compound 8

| Compound | fold increase in potency compared to nonsubstituted analogue 8 |
| --- | --- |
| CC(C)(C)c1cc(C(=O)/C(C#N)=N/Nc2cccc(Br)c2)no1 [Compound 11, 2-(5-tert-Butylisoxazol-3-yl)-N′-(3-bromophenyl)-2-oxoacetohydrazonoyl Cyanide] | 3–4 fold |
| CC(C)(C)c1cc(C(=O)/C(C#N)=N/Nc2cccc(C(F)(F)F)c2)no1 [Compound 13, 2-(5-tert-Butylisoxazol-3-yl)-N′-(3-trifluoromethylphenyl)-2-oxoacetohydrazonoyl Cyanide] | approximately 5 fold |
| CC(C)(C)c1cc(C(=O)/C(C#N)=N/Nc2cccc([N+](=O)[O-])c2)no1 [Compound 14, 2-(5-tert-Butylisoxazol-3-yl)-N′-(3-nitrophenyl)-2-oxoacetohydrazonoyl Cyanide] | about 2 fold |
| Cc1cccc(N/N=C(\C#N)C(=O)c2cc(C(C)(C)C)on2)c1 [Compound 20, 2-(5-tert-Butylisoxazol-3-yl)-2-oxo-N′-m-tolylacetohydrazonoyl Cyanide] | about 2 fold |
| CC(C)(C)c1cc(C(=O)/C(C#N)=N/Nc2cccc(F)c2)no1 [Compound 12, 2-(5-tert-Butylisoxazol-3-yl)-N′-(3-fluorophenyl)-2-oxoacetohydrazonoyl Cyanide] | 3–4 fold |

Molecular target: T2, EPAC1 (Homo sapiens, UniProt O95398)
T2 sequence (O95398 1-881 isoform O95398-3): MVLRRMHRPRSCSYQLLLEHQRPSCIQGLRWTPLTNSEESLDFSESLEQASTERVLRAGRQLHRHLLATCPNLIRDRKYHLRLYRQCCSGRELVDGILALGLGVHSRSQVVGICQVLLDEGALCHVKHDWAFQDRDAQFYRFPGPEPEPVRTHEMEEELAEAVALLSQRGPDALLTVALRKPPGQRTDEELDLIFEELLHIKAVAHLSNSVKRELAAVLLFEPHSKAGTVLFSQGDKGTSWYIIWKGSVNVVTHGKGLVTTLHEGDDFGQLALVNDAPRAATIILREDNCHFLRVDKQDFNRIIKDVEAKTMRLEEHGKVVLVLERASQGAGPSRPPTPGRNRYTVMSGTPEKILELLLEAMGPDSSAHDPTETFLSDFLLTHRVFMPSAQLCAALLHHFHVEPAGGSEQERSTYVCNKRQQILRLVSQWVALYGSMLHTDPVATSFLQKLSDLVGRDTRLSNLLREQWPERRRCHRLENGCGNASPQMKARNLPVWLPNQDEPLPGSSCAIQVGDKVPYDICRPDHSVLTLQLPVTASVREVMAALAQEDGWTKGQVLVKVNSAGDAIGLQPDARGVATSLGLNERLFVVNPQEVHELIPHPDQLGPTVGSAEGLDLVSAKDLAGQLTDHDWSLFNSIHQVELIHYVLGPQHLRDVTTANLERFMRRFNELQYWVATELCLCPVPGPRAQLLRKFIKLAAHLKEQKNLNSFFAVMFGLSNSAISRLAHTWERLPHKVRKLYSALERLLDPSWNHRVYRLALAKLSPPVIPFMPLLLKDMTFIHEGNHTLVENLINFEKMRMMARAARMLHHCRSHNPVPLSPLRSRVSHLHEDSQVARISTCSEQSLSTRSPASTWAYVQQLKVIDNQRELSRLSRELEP
Assay: In vitro EPAC1 GEF activity assay
Assay type: biochemical
Conditions: not given

| Compound | IC50 |
| --- | --- |
| CC(C)(C)c1cc(C(=O)/C(C#N)=N/Nc2cc(Cl)cc(Cl)c2)no1 [Compound 22, 2-(5-tert-Butylisoxazol-3-yl)-N′-(3,5-dichlorophenyl)-2-oxoacetohydrazonoyl Cyanide] | < 5 µM |

System: not listed separately
Assay: Solubility in water by HPLC analysis
Conditions: water

| Compound | solubility at 24 h |
| --- | --- |
| CC(C)(C)c1cc(C(=O)/C(C#N)=N/Nc2cc(F)c(F)c(F)c2)no1 [Compound 36, 2-(5-tert-Butylisoxazol-3-yl)-2-oxo-N′-(3,4,5-trifluorophenyl)acetohydrazonoyl Cyanide] | 75.7 ± 7.1 µg/mL (≈ 216 µM) |
| CC(C)(C)c1cc(C(=O)/C(C#N)=N/Nc2cc(Cl)c(Cl)c(Cl)c2)no1 [Compound 35, 2-(5-tert-Butylisoxazol-3-yl)-2-oxo-N′-(3,4,5-trichlorophenyl)acetohydrazonoyl Cyanide] | 12.7 ± 1 µg/mL (≈ 31.8 µM) |
| N#C/C(=N\Nc1cc(Cl)c(Cl)c(Cl)c1)C(=O)c1cc(C2CCCCC2)on1 [Compound 47, 2-(5-Cyclohexylisoxazol-3-yl)-2-oxo-N′-(3,4,5-trichlorophenyl)acetohydrazonoyl Cyanide] | 10.1 ± 0.79 µg/mL (≈ 23.7 µM) |
| CC(C)(C)c1cc(C(=O)/C(C#N)=N/Nc2ccc(F)c(Cl)c2)no1 [Compound 31, 2-(5-tert-Butylisoxazol-3-yl)-N′-(3-chloro-4-fluorophenyl)-2-oxoacetohydrazonoyl Cyanide] | 82.6 ± 3.6 µg/mL (≈ 237 µM) |
